# Laboratory results: ChEMBL document CHEMBL2311249, “Development of inhibitors of the PAS-B domain of the HIF-2α transcription factor” (J Med Chem, 2013)
# How the values were obtained:
# [1] = biological target: Aryl hydrocarbon receptor nuclear translocator/Endothelial PAS domain-containing protein 1 (Homo sapiens, UniProt P27540+Q99814); test: (§1) Inhibition of GST-tagged PAS-B domain of HIF-2alpha-Flag-tagged PAS-B domain of ARNT heterodimerization (unknown origin) by luminescence proximity assay; assay type: protein assay
# [2] = biological target: Aryl hydrocarbon receptor nuclear translocator/Endothelial PAS domain-containing protein 1 (Homo sapiens, UniProt Q99814); test: as §1; assay type: protein assay
# [3] = biological target: Endothelial PAS domain-containing protein 1 (Homo sapiens, UniProt Q99814); test: Binding affinity to wild type PAS-B domain of HIF-2alpha (unknown origin) by isothermal calorimetry analysis
# Endothelial PAS domain-containing protein 1, sequence (Q99814 whole entry, the tested form may be a part): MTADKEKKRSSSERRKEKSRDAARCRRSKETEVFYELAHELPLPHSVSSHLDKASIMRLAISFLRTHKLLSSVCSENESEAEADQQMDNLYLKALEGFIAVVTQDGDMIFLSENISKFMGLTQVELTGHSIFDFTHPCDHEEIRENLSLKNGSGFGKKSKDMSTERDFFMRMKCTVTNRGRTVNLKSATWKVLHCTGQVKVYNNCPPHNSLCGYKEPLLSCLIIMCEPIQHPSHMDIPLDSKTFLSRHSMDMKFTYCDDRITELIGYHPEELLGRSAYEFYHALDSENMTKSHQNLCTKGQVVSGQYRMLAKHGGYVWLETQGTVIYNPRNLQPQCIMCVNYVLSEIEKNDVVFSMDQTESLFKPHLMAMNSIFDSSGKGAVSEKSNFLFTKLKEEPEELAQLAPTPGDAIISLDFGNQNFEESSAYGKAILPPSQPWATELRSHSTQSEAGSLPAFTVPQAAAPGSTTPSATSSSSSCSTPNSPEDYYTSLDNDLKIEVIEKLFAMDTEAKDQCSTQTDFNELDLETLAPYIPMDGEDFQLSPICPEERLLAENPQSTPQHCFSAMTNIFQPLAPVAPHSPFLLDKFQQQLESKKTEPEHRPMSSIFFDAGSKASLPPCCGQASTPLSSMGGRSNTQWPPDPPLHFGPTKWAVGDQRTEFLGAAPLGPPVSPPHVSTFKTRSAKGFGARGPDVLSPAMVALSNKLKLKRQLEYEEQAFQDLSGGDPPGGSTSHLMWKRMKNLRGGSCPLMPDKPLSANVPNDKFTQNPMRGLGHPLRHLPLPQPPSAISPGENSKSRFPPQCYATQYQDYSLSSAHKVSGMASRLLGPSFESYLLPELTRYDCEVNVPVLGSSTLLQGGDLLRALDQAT
# Aryl hydrocarbon receptor nuclear translocator/Endothelial PAS domain-containing protein 1 (Homo sapiens, UniProt Q99814), sequence (P27540 whole entry, the tested form may be a part): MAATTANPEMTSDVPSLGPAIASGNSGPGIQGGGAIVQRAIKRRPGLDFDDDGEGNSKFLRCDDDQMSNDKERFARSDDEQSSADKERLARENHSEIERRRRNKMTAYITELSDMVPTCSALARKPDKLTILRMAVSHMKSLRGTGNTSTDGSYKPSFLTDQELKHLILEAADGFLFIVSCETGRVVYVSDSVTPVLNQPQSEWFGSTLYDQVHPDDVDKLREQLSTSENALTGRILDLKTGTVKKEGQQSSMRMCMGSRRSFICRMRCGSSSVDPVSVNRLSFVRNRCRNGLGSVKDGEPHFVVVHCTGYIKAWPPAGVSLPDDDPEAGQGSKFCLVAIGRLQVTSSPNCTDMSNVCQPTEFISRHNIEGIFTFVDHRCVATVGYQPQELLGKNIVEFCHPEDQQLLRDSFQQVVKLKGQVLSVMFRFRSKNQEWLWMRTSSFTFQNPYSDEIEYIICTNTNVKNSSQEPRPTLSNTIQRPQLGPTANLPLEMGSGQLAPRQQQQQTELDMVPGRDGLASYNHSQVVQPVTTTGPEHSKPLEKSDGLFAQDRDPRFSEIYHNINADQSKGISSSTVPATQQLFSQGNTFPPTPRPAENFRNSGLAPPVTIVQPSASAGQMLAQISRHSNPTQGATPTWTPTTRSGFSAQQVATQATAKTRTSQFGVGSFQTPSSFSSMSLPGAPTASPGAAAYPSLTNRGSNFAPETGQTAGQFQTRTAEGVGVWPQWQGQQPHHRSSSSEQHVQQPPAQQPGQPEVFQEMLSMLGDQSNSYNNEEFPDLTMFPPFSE
# Aryl hydrocarbon receptor nuclear translocator/Endothelial PAS domain-containing protein 1 (Homo sapiens, UniProt Q99814), sequence (Q99814 whole entry, the tested form may be a part): as the sequence (Q99814 whole entry, the tested form may be a part) above
# Aryl hydrocarbon receptor nuclear translocator/Endothelial PAS domain-containing protein 1 (Homo sapiens, UniProt P27540+Q99814), sequence (P27540 whole entry, the tested form may be a part): as the sequence (P27540 whole entry, the tested form may be a part) above
# Aryl hydrocarbon receptor nuclear translocator/Endothelial PAS domain-containing protein 1 (Homo sapiens, UniProt P27540+Q99814), sequence (Q99814 whole entry, the tested form may be a part): as the sequence (Q99814 whole entry, the tested form may be a part) above
IC50 [1],Structure (SMILES),IC50 [2] [nM],Kd [3] [nM]
Not Active,O=[N+]([O-])c1c(Nc2ccc(Br)cc2)ccc2nonc12,,
Not Active,O=[N+]([O-])c1c(Nc2ccc(Cl)cc2)ccc2nonc12,,
,O=[N+]([O-])c1c(Nc2cc(F)cc(C(F)(F)F)c2)ccc2nonc12,430,
,O=[N+]([O-])c1c(Nc2cc(F)cc(F)c2)ccc2nonc12,2000,730
,O=[N+]([O-])c1c(Nc2ccc(Cl)c(Cl)c2)ccc2nonc12,120,
,O=[N+]([O-])c1c(Nc2cc(F)cc(Cl)c2)ccc2nonc12,100,90
,O=[N+]([O-])c1c(Nc2cc(F)cc(Cl)c2)ccc2nn[nH]c12,> 10000,> 20000
,O=[N+]([O-])c1c(Nc2cc(F)cc(Cl)c2)ccc2[nH]cnc12,< 5000,
,Nc1nc2ccc(Nc3cc(F)cc(Cl)c3)c([N+](=O)[O-])c2[nH]1,> 2000,
,CN(c1cc(F)cc(Cl)c1)c1ccc2nonc2c1[N+](=O)[O-],> 3000,> 10000
,Nc1c(Nc2cc(F)cc(Cl)c2)ccc2nonc12,> 30000,6000
Not Active,CC(=O)Nc1c(Nc2cc(F)cc(Cl)c2)ccc2nonc12,,
Not Active,O=C(CCl)Nc1c(Nc2cc(F)cc(Cl)c2)ccc2nonc12,,
Not Active,O=C1C=CC(=O)N1c1c(Nc2cc(F)cc(Cl)c2)ccc2nonc12,,
Not Active,O=[N+]([O-])c1c(NCc2ccc(Cl)cc2)ccc2nonc12,,
,O=[N+]([O-])c1c(NCc2ccc(F)cc2Cl)ccc2nonc12,330,
Not Active,O=[N+]([O-])c1c(NCc2c(F)cccc2Cl)ccc2nonc12,,
,O=[N+]([O-])c1c(NCc2cc(F)cc(Cl)c2)ccc2nonc12,2000,
,O=[N+]([O-])c1c(NCc2cc(F)ccc2F)ccc2nonc12,> 10000,
,O=[N+]([O-])c1c(NCc2ccc(F)cc2C(F)(F)F)ccc2nonc12,500,540

IC50 [1],Structure (SMILES),IC50 [2] [nM],Kd [3] [nM]
Not Active,O=[N+]([O-])c1c(NCc2cc(F)ccc2C(F)(F)F)ccc2nonc12,,
Not Active,O=[N+]([O-])c1c(Sc2ccccc2)ccc2nonc12,,
Not Active,O=[N+]([O-])c1c(Sc2cccc(F)c2)ccc2nonc12,,
Not Active,O=[N+]([O-])c1c(Sc2cc(F)cc(Cl)c2)ccc2nonc12,,
Not Active,O=[N+]([O-])c1c(Oc2cc(F)cc(Cl)c2)ccc2nonc12,,
Not Active,COc1cccc(Nc2ccc3nonc3c2[N+](=O)[O-])c1,,
Not Active,O=[N+]([O-])c1c(Nc2ccc(F)cc2)ccc2nonc12,,
,O=[N+]([O-])c1c(Nc2cccc(Cl)c2)ccc2nonc12,180,
,O=[N+]([O-])c1c(Nc2cccc(C(F)(F)F)c2)ccc2nonc12,460,
,O=[N+]([O-])c1cccc(Nc2ccc3nonc3c2[N+](=O)[O-])c1,2800,3000
,O=[N+]([O-])c1c(Nc2cccc(F)c2)ccc2nonc12,2100,2200
Not Active,O=[N+]([O-])c1c(Nc2ccc(C(F)(F)F)cc2Cl)ccc2nonc12,,
Not Active,O=[N+]([O-])c1c(Nc2cccc(F)c2Cl)ccc2nonc12,,
,O=[N+]([O-])c1c(Nc2cccc(Cl)c2F)ccc2nonc12,760,
,O=[N+]([O-])c1c(Nc2ccc(F)c(Cl)c2)ccc2nonc12,170,400
,O=[N+]([O-])c1c(Nc2ccc(Cl)c(C(F)(F)F)c2)ccc2nonc12,90,170
,O=[N+]([O-])c1cc(Nc2ccc3nonc3c2[N+](=O)[O-])ccc1Cl,400,
,O=[N+]([O-])c1c(NCc2ccccc2)ccc2nonc12,> 5000,
Not Active,Cc1ccc(CNc2ccc3nonc3c2[N+](=O)[O-])cc1,,

Structure (SMILES),IC50 [1],IC50 [2] [nM],Kd [3] [nM]
O=[N+]([O-])c1ccccc1Nc1cc(F)cc(Cl)c1,Not Active,,4300
Fc1cc(Cl)cc(Nc2ccc3nonc3c2)c1,Not Active,,3000
CNS(=O)(=O)c1c(Nc2cc(F)cc(Cl)c2)ccc2nonc12,Not Active,,
CN(C)S(=O)(=O)c1c(Nc2cc(F)cc(Cl)c2)ccc2nonc12,Not Active,,
